How the values were obtained:
DNA polymerase kappa = biological target: T1, DNA polymerase kappa (Homo sapiens, UniProt Q9UBT6); test: Inhibition of C-terminal His-6-tagged human DNA polymerase kappa expressed in Escherichia coli assessed as inhibition of incorporation of dTTP into poly(dA)/oligo(dT)18 after 60 mins
T1 sequence (Q9UBT6 whole entry): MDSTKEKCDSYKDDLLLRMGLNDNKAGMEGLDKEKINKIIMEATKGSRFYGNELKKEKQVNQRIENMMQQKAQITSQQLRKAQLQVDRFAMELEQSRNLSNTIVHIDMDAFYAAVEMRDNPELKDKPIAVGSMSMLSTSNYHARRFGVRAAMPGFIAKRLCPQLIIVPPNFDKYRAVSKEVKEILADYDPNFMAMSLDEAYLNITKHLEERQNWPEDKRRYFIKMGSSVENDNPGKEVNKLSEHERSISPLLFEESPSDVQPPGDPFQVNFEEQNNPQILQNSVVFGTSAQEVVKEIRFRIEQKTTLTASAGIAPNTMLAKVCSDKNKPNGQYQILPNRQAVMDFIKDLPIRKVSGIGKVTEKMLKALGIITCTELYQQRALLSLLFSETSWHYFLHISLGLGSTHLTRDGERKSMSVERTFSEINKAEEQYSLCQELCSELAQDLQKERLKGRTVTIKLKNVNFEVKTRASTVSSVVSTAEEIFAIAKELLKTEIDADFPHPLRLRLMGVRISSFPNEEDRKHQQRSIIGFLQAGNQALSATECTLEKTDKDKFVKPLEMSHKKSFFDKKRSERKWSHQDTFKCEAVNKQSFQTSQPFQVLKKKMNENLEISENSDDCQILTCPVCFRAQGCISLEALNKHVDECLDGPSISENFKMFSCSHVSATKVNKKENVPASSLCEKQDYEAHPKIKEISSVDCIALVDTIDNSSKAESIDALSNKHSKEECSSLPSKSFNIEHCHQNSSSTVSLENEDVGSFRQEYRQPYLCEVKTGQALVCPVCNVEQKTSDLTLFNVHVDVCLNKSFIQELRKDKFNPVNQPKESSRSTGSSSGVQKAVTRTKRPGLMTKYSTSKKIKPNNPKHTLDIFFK

[1] = Inhibition of DNA polymerase epsilon isolated from human MOLT4 cells assessed as inhibition of incorporation of dTTP into poly(dA)/oligo(dT)18 after 60 mins; format: cell-free; conditions: molt-4
[2] = biological target: Human immunodeficiency virus type 1 reverse transcriptase (Human immunodeficiency virus 1, UniProt Q72547); test: Inhibition of HIV-1 reverse transcriptase assessed as inhibition of incorporation of dTTP into poly(rA)/oligo(dT)18 after 60 mins
[3] = biological target: T2, DNA-directed DNA polymerase (Enterobacteria phage T4, UniProt P04415); test: Inhibition of T4 bacteriophage DNA polymerase assessed as inhibition of incorporation of dTTP into poly(dA)/oligo(dT)18 after 60 mins; set-up: species or system Tequatrovirus T4
T2 sequence (P04415 whole entry): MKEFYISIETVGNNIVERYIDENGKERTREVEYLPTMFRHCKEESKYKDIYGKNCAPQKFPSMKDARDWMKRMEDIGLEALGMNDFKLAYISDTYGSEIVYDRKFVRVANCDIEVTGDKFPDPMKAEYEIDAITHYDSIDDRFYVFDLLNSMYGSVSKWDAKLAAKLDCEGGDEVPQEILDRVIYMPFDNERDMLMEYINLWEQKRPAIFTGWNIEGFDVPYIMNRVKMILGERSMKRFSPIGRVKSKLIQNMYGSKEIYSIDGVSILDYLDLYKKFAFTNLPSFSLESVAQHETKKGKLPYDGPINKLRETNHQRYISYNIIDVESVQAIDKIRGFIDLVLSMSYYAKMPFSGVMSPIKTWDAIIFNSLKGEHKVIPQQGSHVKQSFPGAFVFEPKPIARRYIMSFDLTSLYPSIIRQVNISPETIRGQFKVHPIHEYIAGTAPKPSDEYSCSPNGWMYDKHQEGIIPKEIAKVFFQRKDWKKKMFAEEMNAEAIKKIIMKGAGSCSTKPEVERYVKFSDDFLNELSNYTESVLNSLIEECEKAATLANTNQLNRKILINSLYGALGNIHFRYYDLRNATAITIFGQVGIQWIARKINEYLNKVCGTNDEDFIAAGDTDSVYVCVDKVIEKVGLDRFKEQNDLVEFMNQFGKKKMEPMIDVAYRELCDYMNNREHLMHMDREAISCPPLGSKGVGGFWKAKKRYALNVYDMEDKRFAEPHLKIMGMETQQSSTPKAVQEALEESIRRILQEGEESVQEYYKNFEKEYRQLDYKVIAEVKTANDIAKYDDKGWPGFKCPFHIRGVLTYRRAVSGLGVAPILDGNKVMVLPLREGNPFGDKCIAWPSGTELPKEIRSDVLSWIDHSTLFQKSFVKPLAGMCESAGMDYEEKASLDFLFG

[4] = biological target: Inosine-5'-monophosphate dehydrogenase 2 (Mus musculus, UniProt P24547); test: Inhibition of mouse IMP dehydrogenase 2 assessed as inhibition of incorporation of dTTP into poly(dA)/oligo(dT)18 after 60 mins
T7 RNA polymerase = T7 RNA polymerase (Enterobacteria phage T7, UniProt P00573); test: Inhibition of T7 RNA polymerase assessed as inhibition of incorporation of dTTP into poly(dA)/oligo(dT)18 after 60 mins; set-up: species or system Escherichia phage T7
[5] = biological target: DNA-directed DNA/RNA polymerase mu (Homo sapiens, UniProt Q9NP87); test: Inhibition of human His-tagged recombinant DNA polymerase mu expressed in Escherichia coli BL21 assessed as inhibition of incorporation of dTTP into poly(dA)/oligo(dT)18 after 60 mins
[6] = Inhibition of fruit fly DNA polymerase epsilon assessed as inhibition of incorporation of dTTP into poly(dA)/oligo(dT)18 after 60 mins; set-up: species or system Drosophila melanogaster
Polynucleotide kinase = Polynucleotide kinase (Enterobacteria phage T4, UniProt P06855); test: Inhibition of T4 bacteriophage polynucleotide kinase assessed as inhibition of incorporation of dTTP into poly(dA)/oligo(dT)18 after 60 mins; set-up: species or system Tequatrovirus T4

Measured: IC50

Sequence of Polynucleotide kinase (P06855 whole entry): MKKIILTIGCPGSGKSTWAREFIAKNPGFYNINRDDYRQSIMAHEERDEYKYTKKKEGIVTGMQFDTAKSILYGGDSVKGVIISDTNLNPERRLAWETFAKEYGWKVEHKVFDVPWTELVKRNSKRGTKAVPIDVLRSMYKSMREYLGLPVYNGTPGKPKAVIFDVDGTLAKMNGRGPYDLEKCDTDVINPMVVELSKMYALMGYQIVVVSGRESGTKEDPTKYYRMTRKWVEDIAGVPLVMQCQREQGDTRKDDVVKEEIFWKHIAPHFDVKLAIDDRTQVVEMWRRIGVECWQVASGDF
Sequence of Inosine-5'-monophosphate dehydrogenase 2 (P24547 whole entry): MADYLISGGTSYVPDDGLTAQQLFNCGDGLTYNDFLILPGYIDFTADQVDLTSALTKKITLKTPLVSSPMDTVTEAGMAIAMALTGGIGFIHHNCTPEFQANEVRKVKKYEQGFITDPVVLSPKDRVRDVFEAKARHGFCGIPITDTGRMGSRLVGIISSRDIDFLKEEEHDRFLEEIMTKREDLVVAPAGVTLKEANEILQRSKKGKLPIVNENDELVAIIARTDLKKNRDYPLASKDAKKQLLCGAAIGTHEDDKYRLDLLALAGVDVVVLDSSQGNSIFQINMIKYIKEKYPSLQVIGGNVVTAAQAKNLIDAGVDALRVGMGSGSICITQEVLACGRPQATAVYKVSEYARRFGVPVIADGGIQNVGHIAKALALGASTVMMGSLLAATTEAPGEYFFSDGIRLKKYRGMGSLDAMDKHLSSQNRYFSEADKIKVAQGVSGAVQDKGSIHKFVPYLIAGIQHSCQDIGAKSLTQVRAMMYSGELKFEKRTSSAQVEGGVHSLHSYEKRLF
Sequence of T7 RNA polymerase (P00573 whole entry): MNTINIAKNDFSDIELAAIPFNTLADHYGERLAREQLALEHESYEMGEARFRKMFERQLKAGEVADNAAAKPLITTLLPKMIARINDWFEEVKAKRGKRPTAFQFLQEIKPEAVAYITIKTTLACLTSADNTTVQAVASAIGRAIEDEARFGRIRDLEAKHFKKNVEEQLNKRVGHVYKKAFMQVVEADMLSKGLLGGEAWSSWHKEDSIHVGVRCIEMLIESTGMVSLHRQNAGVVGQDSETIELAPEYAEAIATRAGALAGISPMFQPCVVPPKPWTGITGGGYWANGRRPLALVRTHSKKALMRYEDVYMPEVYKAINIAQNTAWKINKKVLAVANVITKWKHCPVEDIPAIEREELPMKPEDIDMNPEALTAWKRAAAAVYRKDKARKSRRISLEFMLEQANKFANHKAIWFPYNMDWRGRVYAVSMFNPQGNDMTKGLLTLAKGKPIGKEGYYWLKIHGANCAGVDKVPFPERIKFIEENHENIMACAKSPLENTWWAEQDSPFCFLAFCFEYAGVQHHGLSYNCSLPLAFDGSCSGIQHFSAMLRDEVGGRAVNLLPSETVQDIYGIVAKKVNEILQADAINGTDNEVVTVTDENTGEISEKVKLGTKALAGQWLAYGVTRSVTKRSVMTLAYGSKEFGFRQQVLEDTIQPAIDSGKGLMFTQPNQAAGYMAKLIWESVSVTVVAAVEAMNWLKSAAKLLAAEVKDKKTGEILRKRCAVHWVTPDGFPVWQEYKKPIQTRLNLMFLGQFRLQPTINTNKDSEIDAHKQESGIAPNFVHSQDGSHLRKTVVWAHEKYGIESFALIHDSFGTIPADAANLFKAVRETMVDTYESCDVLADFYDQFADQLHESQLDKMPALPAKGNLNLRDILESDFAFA
Sequence of DNA-directed DNA/RNA polymerase mu (Q9NP87 whole entry): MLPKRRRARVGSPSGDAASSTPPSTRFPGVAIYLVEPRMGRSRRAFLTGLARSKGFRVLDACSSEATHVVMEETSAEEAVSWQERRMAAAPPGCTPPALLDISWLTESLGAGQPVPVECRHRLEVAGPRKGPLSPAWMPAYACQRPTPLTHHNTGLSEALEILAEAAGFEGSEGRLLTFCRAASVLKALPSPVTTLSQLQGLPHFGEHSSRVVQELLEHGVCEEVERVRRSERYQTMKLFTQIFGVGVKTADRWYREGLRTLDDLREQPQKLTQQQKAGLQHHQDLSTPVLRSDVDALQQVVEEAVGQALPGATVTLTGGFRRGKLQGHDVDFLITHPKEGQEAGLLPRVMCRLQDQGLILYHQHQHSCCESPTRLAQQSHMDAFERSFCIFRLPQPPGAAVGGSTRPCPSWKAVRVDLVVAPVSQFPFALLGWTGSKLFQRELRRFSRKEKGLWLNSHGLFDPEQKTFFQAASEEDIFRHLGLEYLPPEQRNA

CCCC[C@@H](O)/C=C(C)/C=C/C=C/C(=O)N1CCCC1=O [PECILOCIN]
> 200 µM: all assays above

CC(/C=C/CCC(=O)N1CCCC1=O)=C\C1CCCCO1 (stereo unspecified)
> 200 µM: all assays above

CCCCC(=O)/C=C(C)/C=C/CCC(=O)N1CCCC1=O
> 200 µM: all assays above

CCCC[C@@H](O)/C=C(C)/C=C/C=C\C(=O)N1CCCC1=O
> 200 µM: all assays above
